Results from publication PMC4534154 (Food Science & Nutrition, 2015).
“Also recorded” adds a separate entry of the source. Each block holds one compound with its values, some of them ahead of it. Where a SMILES comes first, the peptide text is derived from it.

How the values were obtained:
trypsin = target: T1, trypsin (Bos taurus, UniProt P00760); experiment: Simulated intestinal fluid (SIF, trypsin only) digestion of Ara h 1 peptides; type: in vitro ADME, bovine; conditions: SIF containing only trypsin, 200 μg peptide in 1 mL, 37°C, samples at 1, 2, 4, 16 h, LC-MS peak integration; for SIF (trypsin) cleavage, formation of 1073.55 amu cleavage ion, in words: Fig. 2D; for peptide cleaved at the K287 site in SIF (formation of 2227.05 amu ion as percentage of sum of parental and fragment ions): Fig. 2C
T1 construct: purchased Sigma; host or cells: bovine pancreas (tissue-derived)
T1 sequence (P00760 24-246): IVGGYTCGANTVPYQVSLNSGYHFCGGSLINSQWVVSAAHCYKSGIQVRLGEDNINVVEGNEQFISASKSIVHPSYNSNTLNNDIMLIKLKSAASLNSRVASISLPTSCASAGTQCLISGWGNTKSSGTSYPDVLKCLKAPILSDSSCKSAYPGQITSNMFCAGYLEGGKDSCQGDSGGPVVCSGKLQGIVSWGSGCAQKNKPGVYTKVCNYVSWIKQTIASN
Text: Pepsin from porcine gastric mucosa and trypsin from bovine pancreas were purchased from Sigma. Sequencing grade-modified trypsin was purchased from Promega. Water was obtained using a Synergy Ultrapure water system (Millipore). Modified and unmodified Ara h 1 peptides were synthesized (at least 95% pure) and purchased from New England Peptide. Serum samples from five peanut allergic patients were purchased from PlasmaLab International (Everett, WA).
Simulated gastric fluid (SGF) containing pepsin and simulated intestinal fluid (SIF) containing trypsin were used as described previously (Mattison et al. [2014b]). Synthetic peptides were resuspended in water just prior to use at a concentration of 1 mg/mL. Peptides (200 μg) were digested with SGF or SIF in 1 mL reaction volume for 1, 2, 4, or 16 h at 37°C. Samples (100 μL) were removed at the indicated time points, 5% formic acid was added, and samples were frozen at −80°C prior to analysis by mass spectrometry.
Analysis of trypsin/pepsin digestions: trypsin or pepsin digested Ara h 1 peptides were analyzed via liquid chromatography with tandem mass spectrometry (LC/MS/MS), using an Agilent 1200 LC system, an Agilent Chip Cube interface, and an Agilent 6520 Q-TOF tandem mass spectrometer (Agilent Technologies, Santa Clara, CA) as described in Mattison et al. (Mattison et al. [2014a]). One microliter sample aliquots were transferred to an enrichment column via capillary pump operating at a flow of 4 μL/min. The Nano pump was operated at a flow rate of 600 nL/min. An initial gradient (Solvent A-100% H2O, 0.1% Formic Acid; Solvent B- 90% ACN, 10% H2O and 0.1% Formic Acid) of 97% A was changed to 10% […] at 2 min, 70% at 15 min, 100% at 20 min, and back to 97% at 25 min. A postrun time of 5 min was employed for column equilibration. An initial MS scan was performed from m/z 300 to 1600 and up to six multiply charged ions were selected for MS/MS analysis. The raw MS/MS data files were extracted, sequenced, and searched against a custom database containing the Ara h 1 sequence using Spectrum Mill software (Agilent Technologies, Santa Clara, CA). For relative quantification, samples were run in MS-only mode and chromatographic peak areas were integrated into selected ions representative of the peptide cleavage products, resulting from the protease digest.
We evaluated the digestion of the modified and unmodified peptides using SIF containing only trypsin to mimic intestinal digestion conditions. […] To quantify the results, we integrated the relative peak areas of the 2227.05 and 1073.55 amu ions and undigested parental ions, and plotted the generation of the peptide cleavage products as a percentage of the sum of the parental and fragment ion values over time (Fig.2C and D). […]

[1] = test system: trypsin from bovine pancreas; experiment: simulated intestinal fluid (SIF) containing trypsin; conditions: 37°C, up to 16 h
[2] = test system: Pepsin from porcine gastric mucosa; experiment: Simulated gastric fluid (SGF) containing pepsin; conditions: 37°C, up to 16 h

Compound: CC[C@H](C)[C@H](N)C(=O)N[C@@H](Cc1ccccc1)C(=O)N[C@@H](CC(C)C)C(=O)N[C@@H](C)C(=O)NCC(=O)N[C@@H](CC(=O)O)C(=O)N[C@@H](CCCCNCC(=O)O)C(=O)N[C@@H](CC(=O)O)C(=O)N[C@@H](CC(N)=O)C(=O)N[C@H](C(=O)N[C@H](C(=O)N[C@@H](CC(=O)O)C(=O)N[C@@H](CCC(N)=O)C(=O)N[C@H](C(=O)N[C@@H](CCC(=O)O)C(=O)N[C@@H](CCCCN)C(=O)O)[C@@H](C)CC)[C@@H](C)CC)C(C)C [IFLAG-CML]
SIF (trypsin) cleavage, formation of 1073.55 amu cleavage ion, in words (trypsin): prevented trypsin cleavage

Compound: IFLAGDK-CML-DNVIDQIEK
not cleaved [1]: the CML modification prevented trypsin cleavage of the peptide | fragment found [2]: IFLAGDKDNVIDQ, major; also recorded: AGDKDNVIDQ, major; also recorded: IFLAGDKD, major

Compound: VAK-CML-ISMPVNTPGQFEDFFPASSR
not cleaved [1]: less than 5% of the CML-modified VAK peptide was cleaved (16 h) | fragment found [2]: VAKISM, major; also recorded: VAKISMPVNTPGQF, major

Compound: VAKISMPVNTPGQFEDFFPASSR [VAK-CML, synthetic Ara h 1 peptide, residues 285–307, with CML modification at lysine 287 (K287)]
peptide cleaved at the K287 site in SIF (formation of 2227.05 amu ion as percentage of sum of parental and fragment ions) (trypsin; listed as CML-modified VAK): less than 5%

Compound: VAKISMPVNTPGQFEDFFPASSR [synthetic Ara h 1 peptide, residues 285–307, unmodified]
peptide cleaved at the K287 site in SIF (formation of 2227.05 amu ion as percentage of sum of parental and fragment ions) (trypsin): about 50%

Now from value to compound, other results behind:

SIF (trypsin) cleavage, formation of 1073.55 amu cleavage ion, in words (trypsin): very limited SIF proteolysis
Compound: CC[C@H](C)[C@H](N)C(=O)N[C@@H](Cc1ccccc1)C(=O)N[C@@H](CC(C)C)C(=O)N[C@@H](C)C(=O)NCC(=O)N[C@@H](CC(=O)O)C(=O)N[C@@H](CCCCN)C(=O)N[C@@H](CC(=O)O)C(=O)N[C@@H](CC(N)=O)C(=O)N[C@H](C(=O)N[C@H](C(=O)N[C@@H](CC(=O)O)C(=O)N[C@@H](CCC(N)=O)C(=O)N[C@H](C(=O)N[C@@H](CCC(=O)O)C(=O)N[C@@H](CCCCN)C(=O)O)[C@@H](C)CC)[C@@H](C)CC)C(C)C [IFLAG] (H-IFLAGDKDNVIDQIEK-OH)

cleaved bond [1]: K547-D548
Compound: IFLAGDKDNVIDQIEK
fragment found [2]: IFLAGDKDNVIDQ, major; also recorded: AGDKDNVIDQ, major; also recorded: IFLAGDKD, major

cleaved bond [1]: K287-I288
Compound: VAKISMPVNTPGQFEDFFPASSR
fragment found [2]: VAKISMPVNTPGQF, major; also recorded: VAKISM, major
